Data published in publication PMC7665585, “Antidepressive effect of an inward rectifier K^+ channel blocker peptide, tertiapin-RQ” (PLoS ONE, 2020).
pIC50: −log10 of the molar value. Bridge positions count the residues as written; N and C are the ends. Peptide text beside a SMILES is read from it.

Experiments:
Male ICR mice = assay: Open field test (OFT); type: in vivo, mouse; conditions: i.c.v., 5 min
Description: We performed mouse behavioral experiments in accordance with our previous study. Male ICR mice (n = 199 in total) aged 5 weeks old were purchased from Shimizu Laboratory Supplies (Kyoto, Japan) and maintained in an animal facility for 7–12 days. They had free access to food and water and were kept in a 12-h light/dark cycle (08:00–20:00). Experiments were carried out between 11:00 and 17:00 in a quiet and air-conditioned experimental room, to which mice were habituated for 30–60 min before each experiment. Animal experiments were performed in accordance with the guidelines of the Physiological Society of Japan and were approved by the Committee for Animal Experiments of Kurashiki University of Science and the Arts. Peptides were dissolved in phosphate-buffered saline (PBS). Peptides were injected intracerebroventricularly (i.c.v.) 30 min before behavioral tests (typically 5 μL/mouse), according to a previous study. The mouse was placed into an anesthetizing jar, to which isoflurane (0.2 mL) was added immediately before. After confirming that the mouse was deeply anesthetized we injected the peptide into the right cerebral ventricle over 30 seconds and the injection needle was kept for 1 min after the injection (i.c.v. coordinates: 0 mm caudal to bregma, 1.0 mm lateral to the midline, and 3.5 mm below the skull). The mouse was placed in a cage set on a heating pad (approximately 33°C) for a few minutes until it spontaneously started to move, and then it was put back into its home cage. Each animal was used only once, except for the wheel running test, which was carried out immediately after the elevated plus-maze.
The open-field test (OFT) was performed in accordance with a previous report. The open-field consisted of a square (90 × 90 cm), in which the floor was divided into 16 equal squares. After a mouse was placed in a corner of the open field facing the wall, the number of the entries into the central squares and whole line crossings were counted for 5 min. After the removal of the animal, the apparatus was cleaned and wiped.

mouse GIRK1/2 = biological target: T1, mouse GIRK1/2 (Mus musculus, UniProt P48542+P63250); assay: Whole-cell patch-clamp of GIRK1/2 in transfected 293T cells; type: cell-based
T1 construct: expressed in transfected cells; host or cells: 293T cells, transient calcium phosphate transfection, pCMV6 plasmid
T1 sequence (P63250 1-501): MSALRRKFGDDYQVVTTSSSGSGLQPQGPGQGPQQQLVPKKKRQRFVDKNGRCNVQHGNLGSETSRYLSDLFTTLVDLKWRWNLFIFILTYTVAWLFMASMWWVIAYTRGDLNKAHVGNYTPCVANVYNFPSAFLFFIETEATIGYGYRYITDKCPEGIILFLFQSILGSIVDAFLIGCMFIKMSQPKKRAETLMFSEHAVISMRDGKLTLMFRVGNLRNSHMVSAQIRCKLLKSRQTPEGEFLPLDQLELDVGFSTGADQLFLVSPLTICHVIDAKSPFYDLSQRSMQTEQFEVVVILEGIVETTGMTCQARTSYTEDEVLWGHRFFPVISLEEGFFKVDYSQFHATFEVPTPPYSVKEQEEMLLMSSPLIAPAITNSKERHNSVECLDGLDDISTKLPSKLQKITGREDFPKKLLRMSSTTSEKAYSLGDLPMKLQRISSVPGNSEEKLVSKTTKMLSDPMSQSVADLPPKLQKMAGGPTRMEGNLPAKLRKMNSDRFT
T1 sequence (P48542 1-425): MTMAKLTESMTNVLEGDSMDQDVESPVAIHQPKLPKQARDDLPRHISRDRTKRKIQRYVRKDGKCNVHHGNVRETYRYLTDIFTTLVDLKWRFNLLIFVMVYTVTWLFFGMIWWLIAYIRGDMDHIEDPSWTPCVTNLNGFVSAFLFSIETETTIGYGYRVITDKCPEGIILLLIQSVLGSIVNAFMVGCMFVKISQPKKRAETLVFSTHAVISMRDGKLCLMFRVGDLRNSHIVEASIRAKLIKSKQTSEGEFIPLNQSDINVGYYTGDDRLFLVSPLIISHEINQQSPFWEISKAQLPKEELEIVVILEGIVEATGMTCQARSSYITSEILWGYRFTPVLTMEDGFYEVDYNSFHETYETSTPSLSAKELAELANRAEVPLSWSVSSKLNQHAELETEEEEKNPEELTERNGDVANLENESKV
Excerpt: The cDNAs for rat ROMK and mouse GIRK1, 2, and 4 were generously donated by Drs Mikio Hayashi (Kansai Medical University) and David Weaver (Vanderbilt University). The ROMK channels were stably expressed by a cell line, 208–4, which was transduced with lentiviral vectors coexpressing the channel and green fluorescent protein (GFP) as described previously. The GIRK genes, cloned in a pCMV6 plasmid (Origene Technologies Inc, Rockville, MD), were transiently expressed in 293T cells with calcium phosphate transfection. GIRK channel currents were recorded 24 h after transfection.
Cells grown on small cover glasses (3 × 18 mm) were placed in a recording chamber. Whole-cell currents were recorded in Tyrode solution using an Axopatch 200B amplifier (Axon Instruments, Foster City, CA) at 25°C. Tyrode solution contained (in mM): NaCl 140, KCl 5.4, NaH2PO4 0.33, CaCl2 2, MgCl2 1, HEPES 5, and glucose 5.5 (pH 7.4 adjusted with NaOH). […] Whole-cell currents were recorded 60 sec after the peptide application and those from 100 to 300 msec of the step pulses were averaged. […] Whole-cell conductance was calculated as the slope of the current-voltage (I-V) relationship from -140 mV to -100 mV and normalized to the initial value (0 μM TPN), in which BaCl2-resistant current was subtracted and indicted as a percentage.

With CC[C@H](C)[C@@H]1NC(=O)[C@H](CCCNC(=N)N)NC(=O)[C@H](CC(N)=O)NC(=O)[C@@H]2CSSC[C@@H](C(=O)NCC(=O)N[C@@H](CCCCN)C(=O)N[C@@H](CCCCN)C(N)=O)NC(=O)[C@H](CCCCN)NC(=O)[C@H](CCCCN)NC(=O)[C@H](Cc3c[nH]c4ccccc34)NC(=O)[C@H](CSSC[C@H](NC(=O)[C@H](CC(C)C)NC(=O)[C@H](C)N)C(=O)N[C@@H](CC(N)=O)C(=O)N2)NC(=O)[C@H](CCC(N)=O)NC(=O)[C@H](CC(C)C)NC(=O)[C@@H]2CCCN2C(=O)[C@H]([C@@H](C)CC)NC(=O)[C@H]([C@@H](C)CC)NC1=O [Peptide 3, TPN-LQ] (H-ALCNCNRIIIPLQCWKKCGKK-NH2; disulfide 3-14, 5-18; N-terminus and C-terminus assumed) the “entries to the central area in OFT” value (Male ICR mice) was “decreased”, the “number of total line crossings in OFT” value (Male ICR mice) was “decreased” and the “central line crossings in OFT” value (Male ICR mice; n = 6 and 7) was “decreased”. The “difference in IC50, GIRK1/2 over ROMK” value (mouse GIRK1/2; ratio of IC50 GIRK1/2 to IC50 ROMK) was 20.9 fold.

CC[C@H](C)[C@@H]1NC(=O)[C@H](CCCNC(=N)N)NC(=O)[C@H](CCCNC(=N)N)NC(=O)[C@H](CC(N)=O)NC(=O)[C@@H]2CSSC[C@@H](C(=O)NCC(=O)N[C@@H](CCCCN)C(=O)N[C@@H](CCCCN)C(N)=O)NC(=O)[C@H](CCCCN)NC(=O)[C@H](CCCCN)NC(=O)[C@H](Cc3c[nH]c4ccccc34)NC(=O)[C@H](CSSC[C@H](NC(=O)[C@H](CC(C)C)NC(=O)[C@H](C)N)C(=O)N[C@@H](CC(N)=O)C(=O)N2)NC(=O)[C@H](CCC(N)=O)NC(=O)[C@H](Cc2c[nH]cn2)NC(=O)[C@@H]2CCCN2C(=O)[C@H]([C@@H](C)CC)NC1=O [Peptide 2, TPN-RQ] (H-ALCNCNRRIIPHQCWKKCGKK-NH2; disulfide 3-14, 5-18) gave a pIC50 (mouse GIRK1/2; 293T cells transiently expressing mouse GIRK1/2, high K+ Tyrode solution (Fig 7), read-out: IC50, GIRK1/2 conductance) of 6.21.
